# Measured values taken from paper PMC2733134, “A novel hydroxyfuroic acid compound as an insulin receptor activator - structure and activity relationship of a prenylindole moiety to insulin receptor activation” (Journal of Biomedical Science, 2009).
# Several values for one entry are separate records, joined by “and”; a condition that tells them apart may be missing. Equal entries are not always repeated. Where two headings read alike, the source gives them in different places.
# Experiments:
# insulin receptor = details: cited from earlier work
# human insulin receptor = target: T1, human insulin receptor (Homo sapiens, UniProt P06213); test: Insulin receptor activation assay (CHO cells overexpressing human insulin receptor, Ab-3 capture, tyrosine kinase activity); type: cell-based; details: for Study 1, cpm, phosphoryl incorporation by tyrosine kinase activities / Study 2, cpm, phosphoryl incorporation by tyrosine kinase activities: hydroxyfuroic acid compounds 100 μM, insulin 10 nM; for % activation, tyrosine kinase activity compared to 10 nM insulin stimulation (Study 1) / % activation, tyrosine kinase activity compared to 10 nM insulin stimulation (Study 2): test concentration 100 μM
# T1 construct: expressed in transfected cells; host or cells: CHO cells (gift of Dr. Richard Roth, Stanford University)
# Protocol: The insulin receptor activation assay is based on the assay described by Zhang et al. with minor modifications. Briefly, approximately 100,000 CHO cells overexpressing human recombinant insulin receptor were suspended in 100 μl of Ham's F-12 medium containing 10% fetal bovine serum (FBS) and seeded into each well of a 96-well plate. Cells were incubated at 37°C with 5% CO2 aeration overnight. CHO cells were rinsed with phosphate buffered saline (PBS) 3 times and starved in serum free Ham's F-12 medium for 2 hours before being stimulated with desired concentration of insulin or test compound for 20 minutes. Test compounds were predissolved in DMSO as 100× stocks and serially diluted when necessary. Stimulated CHO cells were then rinsed 3 times with PBS and lysed in 60 μl of lysis buffer. Fifty μl of the lysate was transferred to a well on a Flexible Assay Plate that was precoated with Ab-3 antibody recognizing the β-subunit of insulin receptor. The well was then rinsed 3 times with Tris buffered saline (TBS) containing 0.1% Tween20 and thrown dried by hand before 10 μl of tyrosine kinase reaction mixture (50 mM HEPES, pH7.4, 5 mM MgCl2, 5 mM MnCl2, 1 mg/mL polyGlu/Tyr and 250,000 cpm γ-P^33 ATP/well) was added. The reaction was carried out at 25°C for 40 minutes and terminated by adding 50 μl ice cold 100 mM phosphoric acid. Fifty μl of the stopped reaction mixture was then transferred to an inch square P81 paper. The P81 paper was air dried and then rinsed in Millipore water 5 times to remove leftover radioactive ATP and product ADP. Five mL of scintillation cocktail was added to the paper before the count was read in a liquid scintillation counter.
# (§1) The 50% effective or inhibition concentrations were determined with the standard curve analysis of SigmaPlot 8.02. The nonlinear regression equation is y = min+(max-min)/(1+(x/EC50)^Hill Slope) where y is the observed responses; x is the dose concentrations; max and min are approximated by the program automatically during the calculation.
# To validate the insulin receptor activation assay, dose response curve of bovine insulin was determined. […] In subsequent experiments, we routinely included 1, 10, and 100 nM insulin as standard reference. […] For simplicity, the efficacies of hydroxyfuroic acid compounds were expressed as percentage of activities comparing to the response provided by 10 nM insulin stimulation in parallel. To distinguish human insulin receptor kinase from other tyrosine kinases in CHO cells, Ab-3, a human insulin receptor β-subunit specific monoclonal antibody, was used to absorb insulin receptor from the CHO cell lysate, so the radioactivity catalyzed by captured tyrosine kinase is attributable to insulin receptor tyrosine kinase activity.
# in vitro = type: cell-based; details: Chinese hamster, LC50, cytotoxicity
# Protocol: (§2) Approximately 5,000 CHO cells suspended in 100 μl D-MEM containing 10% FBS were seeded in each well of a 96-well plate overnight before the cytotoxicity assay. Test compounds were predissolved as 10× solution in 10% DMSO, 10% ethanol, 80% PBS and 10 μl of this 10× test compound solution were added to each well. After 24 hours incubation, medium containing test compound was removed by aspiration and 3 rinses of PBS. One hundred μl of serum medium was replenished before 20 μl methylthiazolyldiphenyl-tetrazolium bromide (MTT, 2.5 mg/mL) and 1 μl phenazine methosulfate (PMS, 50 μM) was added to each well before a 3-hour further incubation at 37°C. Optical density at 450 nm was measured with an ELISA reader. LC50 is defined as the concentration of compound that causes 50% drop of cell viability in this test.
# CHO cells = test: in vitro; type: cell-based; details: Chinese hamster, 24 h
# Protocol: as §2
# [1] = target: T2, Recombinant human IGF-1 receptor (Homo sapiens, UniProt P08069); test: IGF-1 receptor tyrosine kinase activity assay; type: biochemical; details: mid μM of compound, Fig. 6A
# T2 construct: purchased R&D systems (Minneapolis, MN)
# Protocol: The reaction was carried out at pH7.0 in the presence of 50 mM HEPES, 5 mM MgCl2, 0.01 μg/μl polyGlu/Tyr substrate, 5 mM DTT, 250,000 cpm radioactive ATP, and 0.4 ng/μl IGF-1R tyrosine kinase with a final volume of 100 μl at 37°C for 10 minutes. The IGF-1 receptor tyrosine kinase reaction was carried out with subsaturating concentrations of substrates for better sensitivity to activator or inhibitor influence. Test compound D-410639 was predissolved in DMSO as 20× stock. The reaction was stopped by the addition of 100 μl of 25 mM EDTA (pH8), and 85 μl of the stopped reaction mix was blotted on an inch square P81 paper. P81 paper was air dried before rinsed 5 times in Millipore water to remove non-protein phosphorus. Five mL scintillation cocktail was added to the P81 paper before the counts were read with a liquid scintillation counter.
# as §1
# FGF receptor 3 = target: T3, FGF receptor 3 (Homo sapiens, UniProt P22607); test: FGF receptor 3 tyrosine kinase activity assay; type: biochemical; details: Fig. 6C
# T3 construct: purchased R&D systems (Minneapolis, MN)
# Protocol: The reaction condition of FGF receptor 3 was similar to that of EGF receptor except 0.1 μg/μl polyGlu/Tyr substrate and 0.05 ng/μl FGF-receptor 3 were used instead. All other conditions or processes were the same. The FGF receptor 3 tyrosine kinase reaction was carried out with subsaturating concentrations of substrates for better sensitivity to activator or inhibitor influence.
# as §1
# EGF receptor (ErbB1) [2] = target: T4, EGF receptor (ErbB1) (Homo sapiens, UniProt P00533); test: EGF receptor (ErbB1) tyrosine kinase activity assay; type: biochemical; details: Fig. 6B
# T4 construct: purchased R&D systems (Minneapolis, MN)
# Protocol: The reaction condition of EGF receptor (ErbB1) was similar to that of IGF-1 receptor reaction except 0.04 μg/μl polyGlu/Tyr substrate and 0.3 ng/μl EGF receptor (ErbB1) were used, and the reaction time was 15 minutes. All other conditions or processes were the same. The EGF receptor tyrosine kinase reaction was carried out with subsaturating concentrations of substrates for better sensitivity to activator or inhibitor influence.
# as §1
# db/db mice = test system: db/db mice; set-up: method as in PMID 10320380, PMID 11237209; details: cited from earlier work
# EGF receptor (ErbB1) [3] = test system: EGF receptor (ErbB1); set-up: method as in Zhang et al. [19]; details: ref Zhang et al. [19]; cited from earlier work
# [4] = side by side comparison, Fig. 3, read-out: EC50, insulin receptor tyrosine kinase activation
# [5] = read-out: EC50, insulin receptor activation, reported previously
# T3 sequence (P22607 23-806): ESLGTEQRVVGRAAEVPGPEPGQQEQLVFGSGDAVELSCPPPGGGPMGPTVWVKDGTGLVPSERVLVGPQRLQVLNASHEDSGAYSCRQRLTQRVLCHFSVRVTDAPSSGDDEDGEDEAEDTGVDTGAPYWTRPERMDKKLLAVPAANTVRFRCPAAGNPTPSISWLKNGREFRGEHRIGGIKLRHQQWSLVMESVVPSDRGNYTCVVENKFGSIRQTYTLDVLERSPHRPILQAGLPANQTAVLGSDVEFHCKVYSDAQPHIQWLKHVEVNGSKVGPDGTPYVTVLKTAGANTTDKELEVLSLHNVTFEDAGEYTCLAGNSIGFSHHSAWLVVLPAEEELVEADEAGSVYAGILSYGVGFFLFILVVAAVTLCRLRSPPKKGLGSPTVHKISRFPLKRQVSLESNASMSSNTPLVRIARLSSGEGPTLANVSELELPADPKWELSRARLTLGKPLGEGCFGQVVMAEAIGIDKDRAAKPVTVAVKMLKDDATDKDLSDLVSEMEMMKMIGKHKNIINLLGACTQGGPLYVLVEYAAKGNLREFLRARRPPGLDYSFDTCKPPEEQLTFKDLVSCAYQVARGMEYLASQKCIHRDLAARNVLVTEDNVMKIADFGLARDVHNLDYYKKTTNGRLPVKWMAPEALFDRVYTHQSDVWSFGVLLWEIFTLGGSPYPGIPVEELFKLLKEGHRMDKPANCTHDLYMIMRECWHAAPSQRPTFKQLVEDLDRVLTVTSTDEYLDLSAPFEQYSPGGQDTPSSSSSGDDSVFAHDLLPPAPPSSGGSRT
# T4 sequence (P00533 25-1210): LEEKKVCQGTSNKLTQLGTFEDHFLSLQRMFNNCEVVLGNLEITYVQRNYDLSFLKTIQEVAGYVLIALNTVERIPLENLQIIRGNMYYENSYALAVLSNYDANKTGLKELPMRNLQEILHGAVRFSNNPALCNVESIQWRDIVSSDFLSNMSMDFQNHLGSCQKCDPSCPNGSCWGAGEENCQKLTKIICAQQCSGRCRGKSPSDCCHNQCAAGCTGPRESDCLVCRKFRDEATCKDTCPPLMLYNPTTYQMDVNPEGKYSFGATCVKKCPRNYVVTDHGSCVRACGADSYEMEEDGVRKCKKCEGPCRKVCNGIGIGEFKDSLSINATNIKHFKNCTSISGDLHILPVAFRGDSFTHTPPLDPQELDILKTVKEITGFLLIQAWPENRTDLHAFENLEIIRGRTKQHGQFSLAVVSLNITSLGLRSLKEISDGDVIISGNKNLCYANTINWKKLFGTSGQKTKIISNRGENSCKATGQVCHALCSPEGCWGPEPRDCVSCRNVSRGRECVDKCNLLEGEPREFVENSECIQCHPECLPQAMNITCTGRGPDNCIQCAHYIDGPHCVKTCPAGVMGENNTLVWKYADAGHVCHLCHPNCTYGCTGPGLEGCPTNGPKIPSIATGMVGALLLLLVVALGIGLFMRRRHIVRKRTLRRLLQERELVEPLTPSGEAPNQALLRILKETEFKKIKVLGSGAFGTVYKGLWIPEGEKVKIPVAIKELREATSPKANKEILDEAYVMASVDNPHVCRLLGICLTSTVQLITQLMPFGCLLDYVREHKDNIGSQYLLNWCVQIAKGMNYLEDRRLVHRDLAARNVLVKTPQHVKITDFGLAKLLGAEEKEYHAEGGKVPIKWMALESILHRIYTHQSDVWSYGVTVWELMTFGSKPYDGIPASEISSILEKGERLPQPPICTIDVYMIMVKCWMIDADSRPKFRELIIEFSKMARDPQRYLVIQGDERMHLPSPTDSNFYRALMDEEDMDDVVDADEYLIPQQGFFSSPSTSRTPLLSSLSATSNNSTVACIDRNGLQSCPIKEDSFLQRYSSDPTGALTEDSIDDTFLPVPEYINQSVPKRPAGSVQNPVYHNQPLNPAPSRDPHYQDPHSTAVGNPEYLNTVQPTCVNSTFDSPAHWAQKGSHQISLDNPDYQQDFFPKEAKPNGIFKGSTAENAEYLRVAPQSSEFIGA
# T2 sequence (P08069 31-1367): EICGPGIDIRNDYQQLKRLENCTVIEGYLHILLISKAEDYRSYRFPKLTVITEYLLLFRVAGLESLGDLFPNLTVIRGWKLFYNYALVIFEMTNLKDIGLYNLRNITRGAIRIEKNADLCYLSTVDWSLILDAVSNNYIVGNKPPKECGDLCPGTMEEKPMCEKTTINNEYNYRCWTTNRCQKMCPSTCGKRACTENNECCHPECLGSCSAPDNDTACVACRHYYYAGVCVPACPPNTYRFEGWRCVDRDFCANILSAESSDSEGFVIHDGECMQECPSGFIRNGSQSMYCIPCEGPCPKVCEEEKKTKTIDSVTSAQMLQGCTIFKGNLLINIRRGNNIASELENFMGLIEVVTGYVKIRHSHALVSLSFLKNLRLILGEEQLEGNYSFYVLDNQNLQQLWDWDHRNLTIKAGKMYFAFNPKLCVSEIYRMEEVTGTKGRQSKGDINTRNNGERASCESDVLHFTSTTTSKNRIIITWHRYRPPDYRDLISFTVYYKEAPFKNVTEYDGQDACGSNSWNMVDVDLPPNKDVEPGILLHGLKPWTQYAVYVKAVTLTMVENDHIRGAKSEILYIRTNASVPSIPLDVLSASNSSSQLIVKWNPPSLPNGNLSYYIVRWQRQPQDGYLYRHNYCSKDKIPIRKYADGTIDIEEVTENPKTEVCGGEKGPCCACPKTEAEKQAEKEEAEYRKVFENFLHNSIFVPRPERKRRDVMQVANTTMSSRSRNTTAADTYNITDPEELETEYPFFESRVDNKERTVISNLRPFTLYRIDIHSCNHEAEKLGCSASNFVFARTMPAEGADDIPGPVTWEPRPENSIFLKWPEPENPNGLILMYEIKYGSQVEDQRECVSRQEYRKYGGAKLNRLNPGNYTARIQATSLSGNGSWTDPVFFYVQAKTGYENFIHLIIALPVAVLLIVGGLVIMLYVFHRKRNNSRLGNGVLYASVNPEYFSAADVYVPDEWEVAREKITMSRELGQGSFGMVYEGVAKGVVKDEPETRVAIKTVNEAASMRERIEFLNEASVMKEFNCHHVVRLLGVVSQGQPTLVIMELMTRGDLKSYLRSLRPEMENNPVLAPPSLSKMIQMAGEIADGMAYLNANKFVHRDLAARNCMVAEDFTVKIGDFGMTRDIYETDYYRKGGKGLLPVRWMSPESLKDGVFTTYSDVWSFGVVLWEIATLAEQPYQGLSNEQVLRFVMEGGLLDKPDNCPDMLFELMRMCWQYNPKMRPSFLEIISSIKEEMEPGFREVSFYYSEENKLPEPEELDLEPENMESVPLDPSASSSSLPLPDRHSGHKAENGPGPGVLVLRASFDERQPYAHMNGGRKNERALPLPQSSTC
molecule,measurement,setting,value
"bovine insulin: bovine insulin, standard reference of the insulin receptor activation assay",EC50,"insulin receptor; ref Liu et al. [21], read-out: EC50 of insulin, reported",0.001 µM
same,"Study 1, cpm, phosphoryl incorporation by tyrosine kinase activities",human insulin receptor,6250 cpm
same,"Study 2, cpm, phosphoryl incorporation by tyrosine kinase activities",human insulin receptor,1632.5 cpm
same,EC50,"human insulin receptor; assay validation dose response curve, read-out: EC50 of bovine insulin, insulin receptor activation",~0.0051 µM
O=C(O)c1oc(C(=O)c2c[nH]c3c(CCCCCO)cccc23)c(O)c1-c1c[nH]c2ccccc12 [Compound D-410639],CC50 at 24 h,in vitro,~296 µM
same,CC50,CHO cells,296 µM
same,fold less cytotoxic than DMAQ B1,CHO cells,128 fold
same,increase of IGF-1 receptor activity from the base line,[1],60-70%
same,IC50,FGF receptor 3,26.5 µM
same,insulin receptor activation efficacy relative to 10 nM insulin (range over Study 1 and 2),"human insulin receptor; 100 μM, both studies",72-89%
same,"Study 1, cpm, phosphoryl incorporation by tyrosine kinase activities",human insulin receptor,5590 cpm
same,"% activation, tyrosine kinase activity compared to 10 nM insulin stimulation (Study 1)",human insulin receptor,89.4%
same,"Study 2, cpm, phosphoryl incorporation by tyrosine kinase activities",human insulin receptor,1181 cpm
same,"% activation, tyrosine kinase activity compared to 10 nM insulin stimulation (Study 2)",human insulin receptor,72.3%
same,EC50,human insulin receptor; [4],33 µM and 32.9 µM
same,IC50,EGF receptor (ErbB1) [2],1.8 µM
O=C(O)CCCCc1cccc2c(C(=O)c3oc(C(=O)O)c(-c4c[nH]c5ccccc45)c3O)c[nH]c12 [Compound D-410643],"Study 2, cpm, phosphoryl incorporation by tyrosine kinase activities",human insulin receptor,799 cpm
same,"% activation, tyrosine kinase activity compared to 10 nM insulin stimulation (Study 2)",human insulin receptor,48.9%
diisoprenylindolylasterriquinone [Compound L-767827],insulin receptor tyrosine kinase activation potential,insulin receptor,no insulin receptor tyrosine kinase activation potential
O=C(O)c1oc(C(=O)c2c[nH]c3c(CCCO)cccc23)c(O)c1-c1c[nH]c2ccccc12 [Compound D-410637],"% activation, tyrosine kinase activity compared to 10 nM insulin stimulation (Study 1)",human insulin receptor,18.9%
O=C(O)c1oc(C(=O)c2c[nH]c3c(CCCCO)cccc23)c(O)c1-c1c[nH]c2ccccc12 [Compound D-410638],"% activation, tyrosine kinase activity compared to 10 nM insulin stimulation (Study 1)",human insulin receptor,31.3%
CCCCCc1cccc2c(C(=O)c3oc(C(=O)O)c(-c4c[nH]c5ccccc45)c3O)c[nH]c12 [Compound D-410641],"Study 2, cpm, phosphoryl incorporation by tyrosine kinase activities",human insulin receptor,792.7 cpm
same,"% activation, tyrosine kinase activity compared to 10 nM insulin stimulation (Study 2)",human insulin receptor,48.6%
"C=CC(C)(C)c1[nH]c2ccccc2c1C1=C(O)C(=O)C(c2c[nH]c3c(CC=C(C)C)cccc23)=C(O)C1=O [DMAQ B1, Demethylasterriquinone B1]",effect on blood glucose,db/db mice,lower blood glucose in db/db mice
same,CC50 at 24 h,in vitro,2.3 µM
same,EC50,insulin receptor; [5],5 µM
same,activation potential on EGF receptor (ErbB1),EGF receptor (ErbB1) [3],minor activation potential
O=C(O)c1oc(C(=O)c2c[nH]c3c(CCCC(CO)CO)cccc23)c(O)c1-c1c[nH]c2ccccc12 [Compound D-410642],"Study 2, cpm, phosphoryl incorporation by tyrosine kinase activities",human insulin receptor,659.3 cpm
same,"% activation, tyrosine kinase activity compared to 10 nM insulin stimulation (Study 2)",human insulin receptor,40.4%
O=C(O)CCc1cccc2c(C(=O)c3oc(C(=O)O)c(-c4c[nH]c5ccccc45)c3O)c[nH]c12 [Compound D-410644],"Study 2, cpm, phosphoryl incorporation by tyrosine kinase activities",human insulin receptor,357.3 cpm
same,"% activation, tyrosine kinase activity compared to 10 nM insulin stimulation (Study 2)",human insulin receptor,21.9%
"Cn1cc(C2=C(O)C(=O)C(c3ccccc3)=C(O)C2=O)c2ccccc21 [compound 2, phenylindolyldihydroxyquinone, reference compound]",CC50 at 24 h,in vitro,66.5 µM
same,EC50,insulin receptor; [5],0.3 µM
same,EC50,human insulin receptor; [4],39 µM and 38.9 µM
O=C(O)c1sc(C(=O)c2c[nH]c3c(CCCCCO)cccc23)c(O)c1-c1c[nH]c2ccccc12 [Compound D-410640],dose response of insulin receptor activation efficacy,"human insulin receptor; normalized against 10 nM insulin, Fig. 4",levels off at 50 μM and tapers off by 100 μM
